{"source": "patent US11920126B2", "about": "“Bio-manufacturing process” (priority 2018, dated 2024)", "key": {"[1]": {"system": "Ascomycete contaminants", "test": "natamycin inhibition, in vitro liquid media culture", "format": "cell-based", "conditions": "cultured in vitro (liquid media)", "source_text": "Streptomyces natalensis naturally produces low levels of pimaricin, also known as natamycin, which is a fungicide with the ability to bind to sterols found in fungal cell membranes, thus making the cell wall permeable and lysing the cell. This fungicide has greater activity against Ascomycete contaminants, versus production fungi Ganoderma or Trametes. Natamycin's affinity for non-basidiomycetes species make this particular antifungal an attractive target for expression during cultivated manufacturing.\nBy up-regulating the expression of pimM, the total yield of natamycin produced by our Streptomyces natalensis strains was increased. In this respect, natamycin production in wild type Streptomyces natalensis […] the effective range of inhibition (5 ug/mL) when cultured in vitro (liquid media). […] Engineering a bacterium strain with increased natamycin potency helps to reduce the bacterial loading needed for substrate bioburden mitigation, thus further reducing process and material cost."}, "[2]": {"system": "Trichoderma", "test": "Trichoderma-loaded feedstocks co-cultured with engineered Streptomyces", "format": "cell-based", "conditions": "feedstocks loaded with Trichoderma spores, no production fungus", "method": "The efficacy of inhibitory properties was tested in feedstocks without the addition of the fungus. Feedstocks were loaded with Trichoderma spores, a common mold contaminate. Engineered Streptomyces was then co-cultured in these contaminated feedstocks, and the inhibitory effects were recorded."}}, "data": [{"smiles": "C[C@@H]1C/C=C/C=C/C=C/C=C/[C@H](O[C@@H]2O[C@H](C)[C@@H](O)[C@H](N)[C@@H]2O)C[C@@H]2O[C@](O)(C[C@@H](O)C[C@H]3O[C@@H]3/C=C/C(=O)O1)C[C@H](O)[C@H]2C(=O)O", "note": "[natamycin]", "values": [{"measurement": "effective range of inhibition", "setting": "[1]", "value": 5, "unit": "µg/mL"}, {"measurement": "inhibitory effect of Trichoderma in feedstocks as a function of natamycin expression", "setting": "[2]", "value": "strong linear inhibitory effect"}]}]}
